Laboratory results reported in patent US20040253193A1, “Oral rinse for treatment for prevention of bacterial and fungal infection” (priority 2001, published 2004).

What was measured:
[1] = tested on: anaerobic gram-negative microorganisms; details: short-term systemic use, administered orally in humans; cited from earlier work
[2] = format: physicochemical
Procedure: Metronidazole (Apo-Metronidazole, Apotex Research Inc.) was prepared by grinding tablets into a powder form and water is added to make a paste. The paste was added to a suitable quantity of nystatin, which was obtained as an aqueous solution from Alimed or PMS PharmaScience (Nilstat™). […] The mouth rinse has a slightly sticky consistency that provides effective contact with the tissues.

In the case of `Cc1ncc([N+](=O)[O-])n1CCO` [metronidazole], the “effect on anaerobic gram-negative microorganisms and periodontal health” value [1] is given as “sustained reduction of anaerobic gram-negative microorganisms” and the solubility in water [2] is given as “does not dissolve in water”.
